Test results reported in the supplement of paper PMC10307832.

What was measured:
Assay in all cases: relative viability (nuclei count vs DMSO), 5 days (fraction); higher = more cells survive
[1] = test system: NCI-H596
Summary of the method: (§1)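 Dosing by pin tool came one day after lung cancer cell lines were seeded in 1536-well plates, using either one drug or a fixed anchor-drug dose plus five library-drug doses (not always all listed) in √10 steps. After 5 days, nuclei were counted on 4× images. Relative viability is treated-well nuclei count divided by vehicle-well nuclei count, and values are medians of duplicate plates.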

[2] = test system: LCLC-97TM1
Summary of the method: as §1

[3] = test system: NCI-H520
Summary of the method: as §1

[4] = test system: NCI-H1650
Summary of the method: as §1

[5] = test system: NCI-H2087
Summary of the method: as §1

[6] = test system: ABC-1
Summary of the method: as §1

[7] = test system: CAL-12T
Summary of the method: as §1

[8] = test system: NCI-H1651
Summary of the method: as §1

[9] = test system: NCI-H2023
Summary of the method: as §1

[10] = test system: A-427
Summary of the method: as §1

[11] = test system: NCI-H460
Summary of the method: as §1

[12] = test system: PC-3 [JPC-3]
Summary of the method: as §1

[13] = test system: BEN
Summary of the method: as §1

[14] = test system: LC-2-ad
Summary of the method: as §1

[15] = test system: H3255
Summary of the method: as §1

[16] = test system: NCI-H727
Summary of the method: as §1

[17] = test system: NCI-H1944
Summary of the method: as §1

[18] = test system: NCI-H661
Summary of the method: as §1

[19] = test system: NCI-H650
Summary of the method: as §1

[20] = test system: NCI-H441
Summary of the method: as §1

[21] = test system: 201T
Summary of the method: as §1

[22] = test system: NCI-H1915
Summary of the method: as §1

Molecule `CCN(CC)CCCCNc1ncc2cc(-c3cc(OC)cc(OC)c3)c(NC(=O)NC(C)(C)C)nc2n1` + C[C@@H](Oc1cc(-c2cnn(C3CCNCC3)c2)cnc1N)c1c(Cl)ccc(F)c1Cl [Crizotinib] (partner 1 µM) has a relative viability ([1]; first compound 0.01 µM) of 0.918, a relative viability ([1]; first compound 0.03162 µM) of 1.04 and a relative viability ([1]; first compound 0.1 µM) of 1.02. For the same molecule, the relative viability ([1]; first compound 0.3162 µM) was 0.956, the relative viability ([1]; first compound 1 µM) was 0.894 and the relative viability ([2]; first compound 0.03162 µM) was 0.45. The relative viability ([2]; first compound 0.1 µM) was 0.373, the relative viability ([2]; first compound 0.3162 µM) was 0.396 and the relative viability ([2]; first compound 1 µM) was 0.326. The relative viability ([3]; first compound 0.01 µM) was 0.901, the relative viability ([3]; first compound 0.03162 µM) was 0.825 and the relative viability ([3]; first compound 0.1 µM) was 0.86. It also gave a relative viability ([3]; first compound 0.3162 µM) of 0.61, a relative viability ([3]; first compound 1 µM) of 0.297 and a relative viability ([4]; first compound 0.01 µM) of 1.03. It also gave a relative viability ([4]; first compound 0.03162 µM) of 0.989, a relative viability ([4]; first compound 0.1 µM) of 0.902 and a relative viability ([4]; first compound 0.3162 µM) of 1.02. The relative viability ([4]; first compound 1 µM) was 0.698, the relative viability ([5]; first compound 0.01 µM) was 0.925 and the relative viability ([5]; first compound 0.03162 µM) was 0.967. For the same molecule, the relative viability ([5]; first compound 0.1 µM) was 1.01, the relative viability ([5]; first compound 0.3162 µM) was 0.958 and the relative viability ([5]; first compound 1 µM) was 1.06. For the same molecule, the relative viability ([6]; first compound 0.01 µM) was 1.53, the relative viability ([6]; first compound 0.03162 µM) was 1.34 and the relative viability ([6]; first compound 0.1 µM) was 1.18. For the same molecule, the relative viability ([6]; first compound 0.3162 µM) was 1.09, the relative viability ([6]; first compound 1 µM) was 0.905 and the relative viability ([7]; first compound 0.01 µM) was 0.809. For the same molecule, the relative viability ([7]; first compound 0.03162 µM) was 0.612, the relative viability ([7]; first compound 0.1 µM) was 0.553 and the relative viability ([7]; first compound 0.3162 µM) was 0.666. For the same molecule, the relative viability ([7]; first compound 1 µM) was 0.533, the relative viability ([8]; first compound 0.01 µM) was 0.925 and the relative viability ([8]; first compound 0.03162 µM) was 0.851. The relative viability ([8]; first compound 0.1 µM) was 0.945, the relative viability ([8]; first compound 0.3162 µM) was 0.909 and the relative viability ([8]; first compound 1 µM) was 0.828. The relative viability ([9]; first compound 0.01 µM) was 0.646, the relative viability ([9]; first compound 0.03162 µM) was 0.627 and the relative viability ([9]; first compound 0.1 µM) was 0.639. It also gave a relative viability ([9]; first compound 0.3162 µM) of 0.725, a relative viability ([9]; first compound 1 µM) of 0.655 and a relative viability ([10]; first compound 0.01 µM) of 0.886. For the same molecule, the relative viability ([10]; first compound 0.03162 µM) was 0.812, the relative viability ([10]; first compound 0.1 µM) was 0.875 and the relative viability ([10]; first compound 0.3162 µM) was 0.909. The relative viability ([10]; first compound 1 µM) was 0.727, the relative viability ([11]; first compound 0.01 µM) was 1.15 and the relative viability ([11]; first compound 0.03162 µM) was 0.934. The relative viability ([11]; first compound 0.1 µM) was 1.36, the relative viability ([11]; first compound 0.3162 µM) was 1.07 and the relative viability ([11]; first compound 1 µM) was 0.797. The relative viability ([12]; first compound 0.01 µM) was 1, the relative viability ([12]; first compound 0.03162 µM) was 1.01 and the relative viability ([12]; first compound 0.1 µM) was 1.04. For the same molecule, the relative viability ([12]; first compound 0.3162 µM) was 1.04, the relative viability ([12]; first compound 1 µM) was 0.889 and the relative viability ([13]; first compound 0.01 µM) was 1.05. It also gave a relative viability ([13]; first compound 0.03162 µM) of 0.85, a relative viability ([13]; first compound 0.1 µM) of 0.867 and a relative viability ([13]; first compound 0.3162 µM) of 0.835. It also gave a relative viability ([13]; first compound 1 µM) of 0.699, a relative viability ([14]; first compound 0.01 µM) of 0.834 and a relative viability ([14]; first compound 0.03162 µM) of 0.503. It also gave a relative viability ([14]; first compound 0.1 µM) of 0.49, a relative viability ([14]; first compound 0.3162 µM) of 0.488 and a relative viability ([14]; first compound 1 µM) of 0.39. For the same molecule, the relative viability ([15]; first compound 0.01 µM) was 0.936, the relative viability ([15]; first compound 0.03162 µM) was 0.885 and the relative viability ([15]; first compound 0.1 µM) was 1.14. The relative viability ([15]; first compound 0.3162 µM) was 1.01, the relative viability ([15]; first compound 1 µM) was 0.843 and the relative viability ([16]; first compound 0.01 µM) was 0.829. It also gave a relative viability ([16]; first compound 0.03162 µM) of 0.923, a relative viability ([16]; first compound 0.1 µM) of 1.03 and a relative viability ([16]; first compound 0.3162 µM) of 1.06. For the same molecule, the relative viability ([16]; first compound 1 µM) was 0.837, the relative viability ([17]; first compound 0.01 µM) was 1.29 and the relative viability ([17]; first compound 0.03162 µM) was 1.14. The relative viability ([17]; first compound 0.1 µM) was 1.12, the relative viability ([17]; first compound 0.3162 µM) was 1.35 and the relative viability ([17]; first compound 1 µM) was 1.09. The relative viability ([18]; first compound 0.03162 µM) was 1.03, the relative viability ([18]; first compound 0.1 µM) was 0.972 and the relative viability ([18]; first compound 0.3162 µM) was 1.04. For the same molecule, the relative viability ([18]; first compound 1 µM) was 1.17, the relative viability ([19]; first compound 0.01 µM) was 0.694 and the relative viability ([19]; first compound 0.03162 µM) was 0.618. For the same molecule, the relative viability ([19]; first compound 0.1 µM) was 0.863, the relative viability ([19]; first compound 0.3162 µM) was 0.743 and the relative viability ([19]; first compound 1 µM) was 0.606. It also gave a relative viability ([20]; first compound 0.01 µM) of 0.676, a relative viability ([20]; first compound 0.03162 µM) of 0.897 and a relative viability ([20]; first compound 0.1 µM) of 0.73. For the same molecule, the relative viability ([20]; first compound 0.3162 µM) was 0.886, the relative viability ([20]; first compound 1 µM) was 0.762 and the relative viability ([21]; first compound 0.01 µM) was 1.06. It also gave a relative viability ([21]; first compound 0.03162 µM) of 1.09, a relative viability ([21]; first compound 0.1 µM) of 1.06 and a relative viability ([21]; first compound 0.3162 µM) of 1.05. The relative viability ([21]; first compound 1 µM) was 1.03, the relative viability ([22]; first compound 0.01 µM) was 1.1 and the relative viability ([22]; first compound 0.03162 µM) was 0.926. For the same molecule, the relative viability ([22]; first compound 0.1 µM) was 0.943, the relative viability ([22]; first compound 0.3162 µM) was 1.03 and the relative viability ([22]; first compound 1 µM) was 0.935.
